Patent publication US20040121912A1, “Method for controlling root growth using paraquat” (priority 2002, published 2004)
Entries after “also recorded” stand apart in the source; their conditions may differ.

Tested on: black willow (Salix nigra) roots
Assay: Foam application to exposed roots of greenhouse-grown black willow cuttings; roots evaluated 25 days after treatment
Conditions: for Dry Weight of Roots, Dead Roots / Dry Weight of Roots, Live Roots: 20 min contact, twenty-five days following treatment, average of 24 willow cuttings; for Effect on treated roots (visual inspection, living roots / root growth): foam application, twenty-five days following treatment (FIG. 3, FIG. 4)
Protocol: Individual branch cuttings of black willow (Salix nigra) were collected and grown in containers according to methods described in Groninger and Bohanek 2000, J. of Plant Growth Regulation 19:453-456. The cuttings were rooted in 262 ml tubes containing a 1:1 mixture of peat moss and white washed play sand. Tubes were perforated with a 2 cm^2 hole in the bottom and four 1.4 cm^2 holes on the side, 2 cm from the bottom of the tube. Cuttings were grown under greenhouse conditions in racks containing 12 tubes each with one cutting per tube. To facilitate root growth outside of the tube, the racks were placed in aluminum pans and positioned so that the base of each tube was suspended in dilute nutrient solution. Water was added as needed and a 20-20-20-NPK fertilizer was provided at a rate of 0.04 g/cutting per week into the pan. Root growth was further facilitated by maintaining the root zone in darkness by covering gaps between the edge of the rack and the pan with aluminum foil. When cuttings had been growing for approximately four months, intermingling exposed roots from adjacent cuttings were separated from one another and fine roots were allowed to regrow. Treatment were initiated when shoots averaged 0.8 meters in height with healthy foliage. At the time of treatment, each cutting produced profuse growth of roots 0.3 cm in diameter or less.
Roots of the cuttings were exposed to paraquat, diquat, Rootex, a rooting hormone, and a control. Paraquat (Gramoxone Max®, Syngenta, containing 43.8% paraquat) was applied to roots cuttings at two rates, 2.0 and 4.0 ml/L. Diquat (Reward®, Syngenta, containing 37.3% diquat) was applied at 4.0 ml/L. Each treatment of the four treatments were applied in 1.0 L water solution with a 2% alkyl polyglycoside-based foaming agent, AU-340 (Adjuvants Unlimited, Tulsa, Okla.) using a foam generator to simulate a standard application of chemicals in controlling tree roots in sewer lines. Roots were placed in contact with foam solution for 20 minutes. […] Upon removal of foam solution, cuttings and their exposed roots were returned to pretreatment nutrient conditions with residual foam permitted to maintain contact with exposed roots.
Evaluation of roots was conducted twenty-five days following treatment. Roots were visually inspected, harvested, separated into living and dead groups, dried and weighed for dry mass determination.

SMILES | Dry Weight of Roots, Dead Roots (2.0 ml/L of stock in foam) [g/willow cutting] | Dry Weight of Roots, Live Roots (2.0 ml/L of stock in foam) [g/willow cutting] | Dry Weight of Roots, Dead Roots (4.0 ml/L of stock in foam) [g/willow cutting] | Dry Weight of Roots, Live Roots (4.0 ml/L of stock in foam) [g/willow cutting] | Effect on treated roots (visual inspection, living roots / root growth) | Damage to the upper portion of the trees (green house testing, applied as a dense foam to tree roots)
C[n+]1ccc(-c2cc[n+](C)cc2)cc1 [Paraquat, 1,1′-dimethyl-4,4′-bipyridium ion] | 0.7 | 0 | 2.2 | 0 | destruction of the test roots; also recorded: No living roots | without causing damage
c1cc[n+]2c(c1)-c1cccc[n+]1CC2 [Diquat] | – | – | 0.9 | 0 | No living roots | –
